The record followed here is US9328090B2, “Arylethynyl derivatives” (Hoffmann-La Roche Inc., priority 2012, dated 2016).

For this test, the target named is T1, human mGlu5a receptor (Homo sapiens, UniProt P41594).
T1 construct: expressed in transfected cells; host or cells: HEK-293 (monoclonal, stably transfected)
Description: Intracellular Ca2+ mobilization assay (mGlu5 PAM). The test is classed as cell-based. The following applies: for EC50: HEK-293 cells stably transfected with human mGlu5a, L-glutamate added at EC20; for Efficacy [%]: maximal response in % of the maximal stimulatory effect obtained with saturating L-glutamate. The protocol: A monoclonal HEK-293 cell line stably transfected with a cDNA encoding for the human mGlu5a receptor was generated; for the work with mGlu5 Positive Allosteric Modulators (PAMs), a cell line with low receptor expression levels and low constitutive receptor activity was selected to allow the differentiation of agonistic versus PAM activity. Cells were cultured according to standard protocols (Freshney, 2000) in Dulbecco's Modified Eagle Medium with high glucose supplemented with 1 mM glutamine, 10% (vol/vol) heat-inactivated bovine calf serum, Penicillin/Streptomycin, 50 μg/ml hygromycin and 15 μg/ml blasticidin (all cell culture reagents and antibiotics from Invitrogen, Basel, Switzerland).
About 24 hrs before an experiment, 5×10^4 cells/well were seeded in poly-D-lysine coated, black/clear-bottomed 96-well plates. The cells were loaded with 2.5 μM Fluo-4AM in loading buffer (1×HBSS, 20 mM HEPES) for 1 hr at 37° C. and washed five times with loading buffer. The cells were transferred into a Functional Drug Screening System 7000 (Hamamatsu, Paris, France), and 11 half logarithmic serial dilutions of test compound at 37° C. were added and the cells were incubated for 10-30 min. with on-line recording of fluorescence. Following this pre-incubation step, the agonist L-glutamate was added to the cells at a concentration corresponding to EC20 (typically around 80 μM) with on-line recording of fluorescence; in order to account for day-to-day variations in the responsiveness of cells, the EC20 of glutamate was determined immediately ahead of each experiment by recording of a full dose-response curve of glutamate.
Responses were measured as peak increase in fluorescence minus basal (i.e. fluorescence without addition of L-glutamate), normalized to the maximal stimulatory effect obtained with saturating concentrations of L-glutamate. Graphs were plotted with the % maximal stimulatory using XLfit, a curve fitting program that iteratively plots the data using Levenburg Marquardt algorithm. The single site competition analysis equation used was y=A+((B−A)/(1+((x/C)D))), where y is the % maximal stimulatory effect, A is the minimum y, B is the maximum y, C is the EC50, x is the log 10 of the concentration of the competing compound and D is the slope of the curve (the Hill Coefficient). From these curves the EC50 (concentration at which half maximal stimulation was achieved), the Hill coefficient as well as the maximal response in % of the maximal stimulatory effect obtained with saturating concentrations of L-glutamate were calculated.
A depression of the signal observed after addition of the EC20 concentration of L-glutamate was indicative of an inhibitory activity of the test compound.
(In general: Calcium flux is commonly read through the fluorescence of an indicator in the cells.)

T1 sequence (P41594 21-1180 isoform P41594-2 limits assumed): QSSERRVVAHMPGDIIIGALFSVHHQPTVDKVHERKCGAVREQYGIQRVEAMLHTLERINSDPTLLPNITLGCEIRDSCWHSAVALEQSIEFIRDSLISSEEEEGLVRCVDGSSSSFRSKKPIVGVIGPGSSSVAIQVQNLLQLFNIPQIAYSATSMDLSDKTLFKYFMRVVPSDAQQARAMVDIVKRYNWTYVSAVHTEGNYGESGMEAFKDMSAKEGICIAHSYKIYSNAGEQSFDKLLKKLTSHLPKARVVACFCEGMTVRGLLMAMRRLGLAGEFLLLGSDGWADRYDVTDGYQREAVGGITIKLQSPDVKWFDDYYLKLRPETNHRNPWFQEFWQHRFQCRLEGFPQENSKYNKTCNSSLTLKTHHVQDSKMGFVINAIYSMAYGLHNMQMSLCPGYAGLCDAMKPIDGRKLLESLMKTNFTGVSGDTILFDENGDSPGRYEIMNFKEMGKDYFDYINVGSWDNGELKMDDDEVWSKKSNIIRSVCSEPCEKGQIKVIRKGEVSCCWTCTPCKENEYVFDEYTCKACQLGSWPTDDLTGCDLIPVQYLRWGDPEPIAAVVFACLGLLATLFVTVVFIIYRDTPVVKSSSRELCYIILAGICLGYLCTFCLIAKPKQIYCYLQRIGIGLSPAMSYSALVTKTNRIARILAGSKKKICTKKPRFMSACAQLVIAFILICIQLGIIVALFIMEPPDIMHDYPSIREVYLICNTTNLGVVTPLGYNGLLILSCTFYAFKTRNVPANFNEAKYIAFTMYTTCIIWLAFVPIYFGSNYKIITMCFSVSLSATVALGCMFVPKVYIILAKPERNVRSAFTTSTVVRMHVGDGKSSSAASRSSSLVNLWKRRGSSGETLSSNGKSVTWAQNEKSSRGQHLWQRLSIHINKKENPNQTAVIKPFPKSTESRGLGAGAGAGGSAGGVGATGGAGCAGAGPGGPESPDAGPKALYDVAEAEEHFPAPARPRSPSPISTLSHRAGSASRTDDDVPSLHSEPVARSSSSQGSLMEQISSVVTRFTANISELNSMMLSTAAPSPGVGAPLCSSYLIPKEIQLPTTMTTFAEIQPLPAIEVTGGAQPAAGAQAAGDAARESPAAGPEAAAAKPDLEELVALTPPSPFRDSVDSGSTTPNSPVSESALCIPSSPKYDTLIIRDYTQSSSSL

As usually defined, the EC50 is the concentration giving half of the maximal effect. On to `O=C1C[C@H]2CCC[C@H]2N1c1ccc(C#Cc2cccc(F)c2)cn1` [Example 2, (3aR,6aR)-1-(5-((3-Fluorophenyl)ethynyl)pyridin-2-yl)hexahydrocyclopenta[b]pyrrol-2(1H)-one], for which the EC50 was 10 nM and the “Efficacy [%]” value amounted to 48%.
In the case of `O=C1CC2(CCCC2)CN1c1ccc(C#Cc2ccccc2)cn1` [Ref. 1 Ex. 59, reference compound], the “Efficacy [%]” value came to 81%.
On to `O=C1C[C@H]2CCC[C@H]2N1c1ccc(C#Cc2ccc(F)cc2)cn1` [Example 3, (3aR,6aR)-1-(5-((4-Fluorophenyl)ethynyl)pyridin-2-yl)hexahydrocyclopenta[b]pyrrol-2(1H)-one], for which the concentration giving a half-maximal response (EC50) was found to be 10 nM and the “Efficacy [%]” value was 44%.
Turning to `CC1(C)CC(=O)N(c2ccc(C#Cc3cccc(F)c3)cn2)C1` [Ref. 1 Ex. 40, reference compound], the “Efficacy [%]” value came to 100%.
Consider `CC1(C)CC(=O)N(c2ccc(C#Cc3ccccc3)cn2)C1` [Ref. 1 Ex. 13, reference compound], for which the “Efficacy [%]” value amounted to 129%.
Turning to `O=C1C[C@H]2CCC[C@H]2N1c1ccc(C#Cc2ccccc2)cn1` [Example 1, (3aR,6aR)-1-(5-(phenylethynyl)pyridin-2-yl)hexahydrocyclopenta[b]pyrrol-2(1H)-one], the midpoint of the response, the EC50, lay at 10 nM and the “Efficacy [%]” value is listed as 45%.
In the same order, the values of `O=C1C[C@H]2CCC[C@H]2N1c1ccc(C#Cc2cc(F)ccc2F)cn1` [Example 4, (3aR,6aR)-1-(5-((2,5-Difluorophenyl)ethynyl)pyridin-2-yl)hexahydrocyclopenta[b]pyrrol-2(1H)-one] are 8 nM and 19%.
